Reference: patent US7105536B2, “Compounds” (SmithKline Beecham plc, priority 1999, dated 2006)

Test system: male rats (Sprague Dawley)
Assay: Maximal electroshock seizure (MEST) threshold test, rat model
Format: in vivo
Conditions: 2 mg/kg p.o. at 2 h, suspended in 1% methyl cellulose
Experimental: The maximal electroshock seizure (MEST) threshold test in rodents is particularly sensitive for detecting potential anticonvulsant properties^1. In this model, anticonvulsant agents elevate the threshold to electrically-induced seizures whilst proconvulsants lower the seizure threshold.
The threshold for maximal (tonic hindlimb extension) electroshock seizures in male rats (Sprague Dawley, 80–150 g, 6 weeks old) was determined by a Hugo Sachs Electronik stimulator which delivered a constant current (0.3 sec duration; from 1–300 mA in steps of 5–20 mA). The procedure is similar to that outlined above for mouse and full details are as published by Upton et al,.^4
The percentage increase or decrease in CC50 for each group compared to the control is calculated. Drugs are suspended in 1% methyl cellulose.

Row | SMILES | percentage increase in CC50 compared to the control [%]
1 | COc1ccc(C(=O)Nc2cc(Cl)c3c(c2)CNCC3)cc1C#N [Example 5, N-(5-Chloro-1,2,3,4-tetrahydroisoquinolin-7-yl)-3-cyano-4-methoxybenzamide] | 210
2 | CC(=O)c1cc(C(=O)Nc2cc(Cl)c3c(c2)CNCC3)ccc1OC(C)C [Example 8, N-(5-Chloro-1,2,3,4-tetrahydroisoquinolin-7-yl)-3-acetyl-4-iso-propoxybenzamide] | 114
3 | CCOc1ccc(C(=O)Nc2cc(Cl)c3c(c2)CNCC3)cc1Cl [Example 2, N-(5-Chloro-1,2,3,4-tetrahydroisoquinolin-7-yl)-3-chloro-4-ethoxy benzamide] | 390
4 | CCOc1ccc(C(=O)Nc2cc(Cl)c3c(c2)CNCC3)cc1Br [Example 7, N-(5-Chloro-1,2,3,4-tetrahydroisoquinolin-7-yl)-3-bromo-4-ethoxybenzamide] | 410
5 | CC(C)c1ccc(C(=O)Nc2cc(Cl)c3c(c2)CNCC3)cc1C#N [Example 3, N-(5-Chloro-1,2,3,4-tetrahydroisoquinolin-7-yl)-3-cyano-4-iso-propyl benzamide] | 140
